Assays:
[1] = test system: Human cholangiocarcinoma cells (HuCCT1); assay: In vivo study 3: HuCCT1 implant, gemcitabine or its HAP 30 mg/kg with radiotherapy; set-up: species or system Balb/c nude mice; details: i.p. 30 mg/kg twice/week plus 2 Gy; for tumor growth inhibitory effect: vs radiation monotherapy, FIG. 15
Method: Human cholangiocarcinoma cells (HuCCT1) were subcutaneously implanted into Balb/c nude mice (5 mice per group), respectively, and gemcitabine or gemcitabine HAP was intraperitoneally administered (30 mg/kg, twice/week), respectively to examine the synergistic effect of the combination therapy with radiotherapy (2 Gy, on the day after drug administration, twice/week).

[2] = test system: Human cancer cells (MIA Paca-2); assay: In vivo study 2 (part 2): MIA Paca-2 implant, comparison with 2-nitroimidazole, with irradiation; set-up: species or system Balb/c nude mice; details: i.p. 10 mg/kg twice/week plus 1 Gy; vs radiation alone, 2-nitroimidazole, and gemcitabine plus 2-nitroimidazole, FIG. 14
Method: Human cancer cells (MIA Paca-2) were subcutaneously implanted into Balb/c nude mice (7 mice per group), respectively, and 2-nitroimidazole (10 mg/kg, twice/week), 2-nitroimidazole and gemcitabine (10 mg/kg respectively, twice/week), and gemcitabine HAP (10 mg/kg, twice/week) were intraperitoneally administered to examine the synergistic effect of the combination therapy with irradiation (1 Gy, on the day after drug administration, twice/week).

[3] = test system: Human pancreatic cancer cells (MIA Paca-2); assay: In vivo study 2: MIA Paca-2 implant, gemcitabine or its HAP 10 mg/kg with radiotherapy; set-up: species or system Balb/c nude mice; details: i.p. 10 mg/kg twice/week plus 1 Gy, vs radiation monotherapy and gemcitabine plus radiation
Method: Human pancreatic cancer cells (MIA Paca-2) were subcutaneously implanted to Balb/c nude mice (6 mice per group), and gemcitabine or gemcitabine HAP was intraperitoneally administered (10 mg/kg, twice/week) to examine the synergistic effect of the combination therapy with radiotherapy (1 Gy, on the day after drug administration, twice/week).

malignant tumor = assay: therapy combined with radiotherapy (in vivo), summary in the disclosure; set-up: species or system experimental animals
Source text: Nevertheless, we investigated if there exists benefit or not in the therapy combined with radiotherapy using the PropHAP of gemcitabine. […] Even if the dose of the drug was increased, the effect stayed the same. […] Each PropHAP differs from gemcitabine in its chemical structure of the anticancer drug and the mechanism of action on tumors.

[4] = test system: Human pancreatic cancer cells (MIA Paca-2); assay: In vivo study 1: MIA Paca-2 implant, gemcitabine or its HAP 120 mg/kg with radiotherapy; set-up: species or system Balb/c nude mice; details: i.p. 120 mg/kg twice/week plus 2 Gy; for tumor growth inhibitory effect: vs radiation monotherapy, FIG. 12
Method: Human pancreatic cancer cells (MIA Paca-2) were subcutaneously implanted into Balb/c nude mice (6 or 7 mice per group), respectively, and gemcitabine or gemcitabine HAP (prepared according to the method described in Examples of JP 5676020 B2) was intraperitoneally administered (120 mg/kg, twice/week) to examine the synergistic effect of the combination therapy with radiotherapy (2 Gy, on the day after drug administration, twice/week).

PARP = assay: detection of poly ADP ribosylated (PARylated) proteins by Western blotting; type: cell-based, Human; details: hypoxic environment, FIG. 2
Source text: To determine whether the targeted PARP activity was inhibited under a hypoxic environment, proteins were recovered from the cells and poly ADP ribosylated (PARylated) proteins were detected by Western blotting.

[5] = test system: Human breast cancer cells (MDA-MB-231); assay: cell viability of MDA-MB-231 at normal and low oxygen concentration, 2 days; type: cell-based; details: MDA-MB-231, normal vs low oxygen concentration (0.2%), FIG. 1
MDA-MB-231 cells = assay: MDA-MB-231 subcutaneous implant in mice, drug combined with radiotherapy; type: in vivo, Balb/c nude mice; details: oral 50/100 mg/kg plus 0.5 Gy; for tumor growth inhibitory effect: compared with radiation monotherapy, FIG. 3
Method: Balb/c nude mice (6 or 7 mice per group) were each subcutaneously implanted with MDA-MB-231 cells, and administered with niraparib or niraparib HAP to analyze the synergistic effect with radiotherapy.
Irradiation: 1 hour of drug administration followed by irradiation at 0.5 Gy

[6] = test system: Human malignant melanoma (A375) cells; assay: cell viability of A375 at normal and low oxygen concentration, 2 days; type: cell-based; details: A375, normal vs lower (0.2%) oxygen, FIG. 5, 6, 8
[7] = test system: Human breast cancer cells (MDA-MB-231); assay: cell viability of MDA-MB-231 at normal and low oxygen concentration, 4 days; type: cell-based; details: MDA-MB-231, normal vs lower (0.2%) oxygen, FIG. 7
[8] = test system: Human breast cancer cells (MCF-7); assay: cell viability of MCF-7 at normal and low oxygen concentration, 2 days; type: cell-based; details: MCF-7, normal vs lower (0.2%) oxygen, FIG. 9, 11
Source text: The results are illustrated in FIG. 11.

[9] = test system: Human pancreatic cancer cells (MIA Paca-2); assay: MIA Paca-2 subcutaneous implant in mice, palbociclib or its HAP with radiotherapy; type: in vivo, Balb/c nude mice; details: oral 100 mg/kg twice/week plus 2 Gy; vs radiation alone and vs palbociclib plus radiation, FIG. 10
Method: Human pancreatic cancer cells (MIA Paca-2) were subcutaneously implanted into Balb/c nude mice (6 mice per group), and palbociclib or palbociclib HAP was orally administered (100 mg/kg, twice/week) to examine the synergistic effect with radiotherapy (2 Gy on the day after drug administration, twice/week).

[10] = test system: human breast cancer cells (MCF7); assay: MCF7 subcutaneous implant in mice, ribociclib or its HAP with radiotherapy; type: in vivo, Balb/c nude mice; details: oral 75 mg/kg twice/week plus 1 Gy; vs radiation alone or ribociclib plus radiation, FIG. 11
Method: A 17β-estradiol sustained-release pellet (manufactured by Innovative Research of America) and human breast cancer cells (MCF7) were subcutaneously implanted to Balb/c nude mice (6 mice per group), and ribociclib or ribociclib HAP was orally administered (75 mg/kg, twice/week) to examine the synergistic effect with radiotherapy (1 Gy, on the day after drug administration, twice/week). The results are illustrated in a lower panel of FIG. 11.

[11] = test system: human breast cancer cells (MCF7); assay: MCF7 subcutaneous implant in mice, doxorubicin or its HAP with radiotherapy; type: in vivo, Balb/c nude mice; details: i.p. 4 or 16 mg/kg plus 0.5 Gy
Method: Balb/c nude mice (6 mice or more per group) were subcutaneously implanted with […] sustained-release pellets (produced by Innovative Research of America) and human breast cancer cells (MCF7), and intraperitoneally administered with doxorubicin (4 mg/kg. Day 0 and 2) or doxorubicin HAP 4 mg/kg, or 16 mg/kg, Day 0, 2, 7 and 9) to examine the synergistic effect with radiotherapy (0.5 Gy, Day 1, 3, 8 and 10). The results are shown in a lower panel of FIG. 16.

hypoxic cells = details: compared to typical radiotherapy alone; cited from earlier work
[12] = vs gemcitabine-administered group
[13] = with radiotherapy, radiation dose at which the parent compound causes side effects such as weight loss
[14] = compared with niraparib-administered group

For `O=C(CCn1ccnc1[N+](=O)[O-])Nc1ccn([C@@H]2O[C@H](CO)C(O)C2(F)F)c(=O)n1` (stereo in doubt) [gemcitabine HAP], the body weight [1, 12] was “did not show a decrease in body weight”, the “tumor growth inhibitory effect” value [1] was “tumor growth inhibitory effect was enhanced” and the “tumor growth inhibitory effect” value [2] was “tumor growth inhibitory effect was enhanced”. The “tumor growth inhibitory effect” value ([3]; FIG. 13) was “effect was higher than that of gemcitabine”, the “tumor growth inhibitory effect” value ([3]; FIG. 13, listed as gemcitabine-HAP) was “tumor growth inhibitory effect was enhanced” and the anticancer effects (malignant tumor; radiation and drug dose at which the parent shows no side effect, vs radiation alone, parent alone, parent plus radiotherapy) was “significantly superior anticancer effects”. The therapeutic effect (malignant tumor; [13]) was “almost equivalent to that of the parent compound”, the weight loss (malignant tumor; [13]) was “not resulting in a significant weight loss” and the body weight [4, 12] was “no decrease in body weight”. The survival rate [4, 12] was “improved survival rate” and the “tumor growth inhibitory effect” value [4] was “tumor growth inhibitory effect was enhanced”.
For `NC(=O)c1cccc2cn(-c3ccc(C4CCCN(C(=O)CCn5ccnc5[N+](=O)[O-])C4)cc3)nc12` (centres unmarked) [Compound 3], the “PARP activity (PARylated proteins)” value (PARP) was “PARP activity is specifically inhibited under the low oxygen environment”, the “cytotoxicity (cell viability)” value [5] was “cytotoxicity is recovered at the low oxygen concentration” and the body weight (MDA-MB-231 cells; [14]) was “no decrease in body weight”. The survival rate (MDA-MB-231 cells; [14]) was “improved survival rate” and the “tumor growth inhibitory effect” value (MDA-MB-231 cells) was “tumor growth inhibitory effect is enhanced”.
With `CC(C)(C)c1nc(-c2cccc(NS(=O)(=O)c3c(F)cccc3F)c2F)c(-c2ccnc(NC(=O)CCn3ccnc3[N+](=O)[O-])n2)s1` [Compound 9] the “cytotoxicity (cell viability)” value [6] was “cytotoxicity is recovered at the low oxygen concentration”.
With `CCCS(=O)(=O)Nc1ccc(F)c(C(=O)c2cn(C(=O)CCn3ccnc3[N+](=O)[O-])c3ncc(-c4ccc(Cl)cc4)cc23)c1F` [Compound 11] the “cytotoxicity (cell viability)” value [6] was “cytotoxicity is recovered at the low oxygen concentration”.
For `O=C(CCn1ccnc1[N+](=O)[O-])Nc1ccccc1NC(=O)c1ccc(CNC(=O)OCc2cccnc2)cc1` [Compound 13], the “cytotoxicity (cell viability)” value [7] was “cytotoxicity is recovered at the low oxygen concentration”.
In the case of `O=C(c1ccc(F)c(F)c1Nc1ccc(I)cc1F)N1CC(O)([C@@H]2CCCCN2C(=O)CCn2ccnc2[N+](=O)[O-])C1` [Compound 15], the “cytotoxicity (cell viability)” value [6] is reported as “cytotoxicity is recovered at the low oxygen concentration”.
For `CC(=O)c1c(C)c2cnc(Nc3ccc(N4CCN(C(=O)CCn5ccnc5[N+](=O)[O-])CC4)cn3)nc2n(C2CCCC2)c1=O` [Compound 17], the “cytotoxicity (cell viability)” value [8] was “cytotoxicity is recovered at the low oxygen concentration” and the “tumor growth inhibitory effect” value [9] was “tumor growth inhibitory effect was enhanced when radiation was used in combination”.
For `CN(C)C(=O)c1cc2cnc(Nc3ccc(N4CCN(C(=O)CCn5ccnc5[N+](=O)[O-])CC4)cn3)nc2n1C1CCCC1` [Compound 19], the “cytotoxicity (cell viability)” value [8] was “cytotoxicity is recovered at the low oxygen concentration” and the “tumor growth inhibitory effect” value [10] was “tumor growth inhibitory effect was enhanced when radiation was used in combination”.
With `COc1cccc2c1C(=O)c1c(O)c3c(c(O)c1C2=O)CC(O)(C(=O)CO)CC3OC1CC(NC(=O)CCn2ccnc2[N+](=O)[O-])C(O)C(C)O1` (centres unmarked) [doxorubicin HAP] the weight loss ([11]; vs doxorubicin-administered group) was “did not show the weight loss” and the “tumor growth inhibitory effect” value ([11]; vs radiotherapy alone and doxorubicin plus radiation, FIG. 16) was “tumor growth inhibitory effect was enhanced when radiation was used in combination”.
In the case of `O=C(Cn1ccnc1[N+](=O)[O-])NCCO` [etanidazole], the survival rate (hypoxic cells) is given as “no significant improvement statistically in survival rate”.
For `Nc1ccn([C@@H]2O[C@H](CO)[C@@H](O)C2(F)F)c(=O)n1` [gemcitabine, reference compound], the “tumor growth inhibitory effect” value [1] was “tumor growth inhibitory effect was enhanced” and the “tumor growth inhibitory effect” value [4] was “tumor growth inhibitory effect was enhanced”.
In the case of `O=[N+]([O-])c1cncn1CCN1CCOCC1` [nimorazole], the survival rate (hypoxic cells) is given as “no significant improvement statistically in survival rate”.
In the case of `NC(=O)c1cccc2cn(-c3ccc([C@@H]4CCCNC4)cc3)nc12` [niraparib, reference compound], the “tumor growth inhibitory effect” value (MDA-MB-231 cells) is reported as “tumor growth inhibitory effect is enhanced”.
In the case of `O=[N+]([O-])c1nccn1CC(O)CN1CCCCC1` (centres unmarked) [pimonidazole], the survival rate (hypoxic cells) is given as “no significant improvement statistically in survival rate”.

Reference: patent US20240424011A1, “COMBINATION THERAPY OF HYPOXIA-RESPONSIVE PRODRUG OF AN ANTICANCER DRUG AND RADIOTHERAPY, AND NOVEL HYPOXIA-RESPONSIVE PRODRUG” (UNIVERSITY OF TSUKUBA, priority 2021, published 2024)
